In patent US20080171732A1, “New Pyridine Analogues IX 519” (AstraZeneca AB, priority 2007, published 2008):

What follows are molecules tested against T1, P2Y12 receptor (Homo sapiens, UniProt Q9H244) (assay: Functional inhibition of 2-Me-S-ADP induced P2Y12 signalling (35S-GTPγS, cell membranes from P2Y12 transfected CHO-cells)). Conditions: EC80 concentration of agonist 2-methyl-thio-adenosine diphosphate, 30° C., 45 min.
T1 construct: expressed in transfected cells; host or cells: CHO cells (membranes)
Type: biochemical
Procedure: Functional inhibition of-the P2Y12 receptor can be measured by in vitro assays using cell membranes from P2Y12 transfected CHO-cells, the methodology is indicated below.
(§1) Functional inhibition of 2-Me-S-ADP induced P2Y12 signalling: 5 μg of membranes were diluted in 200 μl of 200 mM NaCl, 1 mM MgCl2, 50 mM HEPES (pH 7.4), 0.01% BSA, 30μg/ml saponin and 10 μM GDP. To this was added an EC80 concentration of agonist (2-methyl-thio-adenosine diphosphate), the required concentration of test compound and 0.1 μCi ^35S-GTPγS. The reaction was allowed to proceed at 30° C. for 45 min. Samples were then transferred on to GF/B filters using a cell harvester and washed with wash buffer (50 mM Tris (pH 7.4), 5 mM MgCl2, 50 mM NaCl). Filters were then covered with scintilant and counted for the amount of ^35S-GTPγS retained by the filter. Maximum activity was that determined in the presence of the agonist and minimum activity in the absence of the agonist following subtraction of the value determined for non-specific activity. The effect of compounds at various concentrations was plotted according to the equation
y=A+((B−A)/(1+((C/x)̂D)))
and IC50 estimated where • A is the bottom plateau of the curve i.e. the final minimum y value • B is the top of the plateau of the curve i.e. the final maximum y value • C is the x value at the middle of the curve. This represents the log EC50 value when A+B=100 • D is the slope factor. • x is the original known x values. • Y is the original known y values.
as §1, with “30 μg/ml” for “30μg/ml”, “0. 1” for “0.1”

T1 sequence (Q9H244 whole entry): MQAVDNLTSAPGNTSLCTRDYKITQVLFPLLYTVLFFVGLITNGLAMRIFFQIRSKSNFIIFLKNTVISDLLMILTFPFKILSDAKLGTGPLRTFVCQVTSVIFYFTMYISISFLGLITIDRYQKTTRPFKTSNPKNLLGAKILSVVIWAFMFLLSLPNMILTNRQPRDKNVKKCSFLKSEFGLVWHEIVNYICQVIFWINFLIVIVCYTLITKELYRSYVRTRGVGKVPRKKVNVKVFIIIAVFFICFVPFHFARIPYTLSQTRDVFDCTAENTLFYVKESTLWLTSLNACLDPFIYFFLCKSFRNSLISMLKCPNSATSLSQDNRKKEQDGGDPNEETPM

Molecule	IC50 [µM]
CCOC(=O)c1cc(C#N)c(N2CCC(C(=O)NS(=O)(=O)Cc3ccc(Cl)cc3F)CC2)nc1OC [Example 18, Ethyl6-(4-{[(4-chloro-2-fluorobenzyl)sulfonyl]carbamoyl}piperidin-1-yl)-5-cyano-2-methoxynicotinate]	0.01
CCOC(=O)c1cc(C#N)c(N2CC(C(=O)NS(=O)(=O)Cc3ccc(F)cc3)C2)nc1OCC [Example 39, Ethyl5-cyano-2-ethoxy-6-(3-{[(4-fluorobenzyl)sulfonyl]carbamoyl}azetidin-1-yl)nicotinate]	0.032
CCOC(=O)c1cc(C#N)c(N2CC(C(=O)NS(=O)(=O)Cc3ccc(C(F)(F)F)cc3)C2)nc1OC [Example 26, Ethyl5-cyano-2-methoxy-6-[3-({[4-(trifluoromethyl)benzyl]sulfonyl}carbamoyl)azetidin-1-yl]nicotinate]	0.012
CCOC(=O)c1cc(C#N)c(N2CC(C(=O)NS(=O)(=O)Cc3ccc(Cl)cc3Cl)C2)nc1OC [Example 28, Ethyl5-cyano-6-(3-{[(2,4-dichlorobenzyl)sulfonyl]carbamoyl}azetidin-1-yl)-2-methoxynicotinate]	0.005
CCOC(=O)c1cc(C#N)c(N2CC(C(=O)NS(=O)(=O)Cc3ccccc3Cl)C2)nc1OC [Example 22, Ethyl6-(3-{[(2-chlorobenzyl)sulfonyl]carbamoyl}azetidin-1-yl)-5-cyano-2-methoxynicotinate]	0.012
CCOC(=O)c1cc(C#N)c(N2CCC(C(=O)NS(=O)(=O)Cc3ccccc3Cl)CC2)nc1OC [Example 9, Ethyl6-(4-{[(2-chlorobenzyl)sulfonyl]carbamoyl}piperidin-1-yl)-5-cyano-2-methoxynicotinate]	0.032
CCOC(=O)c1cc(C#N)c(N2CCC(C(=O)NS(=O)(=O)Cc3ccc(Cl)cc3Cl)CC2)nc1OC [Example 15, Ethyl5-cyano-6-(4-{[(2,4-dichlorobenzyl)sulfonyl]carbamoyl}piperidin-1-yl)-2-methoxynicotinate]	0.022
CCOC(=O)c1cc(F)c(N2CCC(C(=O)NS(=O)(=O)Cc3ccccc3)CC2)nc1SC [Example 44, Ethyl6-{4-[(benzylsulfonyl)carbamoyl]piperidin-1-yl}-5-fluoro-2-(methylthio)nicotinate]	0.042
COc1nc(N2CCC(C(=O)NS(=O)(=O)Cc3ccc(Cl)cc3)CC2)c(C#N)cc1C(=O)OC(C)C [Example 55, Isopropyl6-(4-{[(4-chlorobenzyl)sulfonyl]carbamoyl}piperidin-1-yl)-5-cyano-2-methoxynicotinate]	0.011
CCOC(=O)c1cc(C#N)c(N2CC(C(=O)NS(=O)(=O)Cc3ccc(F)cc3F)C2)nc1OC [Example 29, Ethyl5-cyano-6-(3-{[(2,4-difluorobenzyl)sulfonyl]carbamoyl}azetidin-1-yl)-2-methoxynicotinate]	0.01
CCOC(=O)c1cc(Cl)c(N2CCC(C(=O)NS(=O)(=O)Cc3ccccc3)CC2)nc1Cl [Example 59, Ethyl6-{4-[(benzylsulfonyl)carbamoyl]piperidin-1-yl}-2,5-dichloronicotinate]	0.033
CCOC(=O)c1cc(C#N)c(N2CC(C(=O)NS(=O)(=O)Cc3ccc(F)c(F)c3)C2)nc1OC [Example 27, Ethyl5-cyano-6-(3-{[(3,4-difluorobenzyl)sulfonyl]carbamoyl}azetidin-1-yl)-2-methoxynicotinate]	0.035
CCOC(=O)c1cc(C#N)c(N2CCC(C(=O)NS(=O)(=O)Cc3ccccc3)CC2)nc1OCC [Example 3, Ethyl6-{4-[(benzylsulfonyl)carbamoyl]piperidin-1-yl}-5-cyano-2-ethoxynicotinate]	0.012
CCOC(=O)c1cc(C#N)c(N2CC(C(=O)NS(=O)(=O)Cc3cccc(F)c3)C2)nc1OC [Example 23, Ethyl5-cyano-6-(3-{[(3-fluorobenzyl)sulfonyl]carbamoyl}azetidin-1-yl)-2-methoxynicotinate]	0.044
CCOC(=O)c1cc(C#N)c(N2CCC(C(=O)NS(=O)(=O)Cc3ccc(F)cc3)CC2)nc1OC [Example 11, Ethyl5-cyano-6-(4-{[(4-fluorobenzyl)sulfonyl]carbamoyl}piperidin-1-yl)-2-methoxynicotinate]	0.009
CCOC(=O)c1cc(C#N)c(N2CCC(C(=O)NS(=O)(=O)Cc3ccc(C(F)(F)F)cc3)CC2)nc1OC [Example 13, Ethyl5-cyano-2-methoxy-6-[4-({[4-(trifluoromethyl)benzyl]sulfonyl}carbamoyl)piperidin-1-yl]nicotinate]	0.019
CCCC(=O)c1cc(C#N)c(N2CCC(C(=O)NS(=O)(=O)Cc3ccc(F)cc3)CC2)nc1OC [Example 51, 1-(5-Butyryl-3-cyano-6-methoxypyridin-2-yl)-N-[(4-fluorobenzyl)sulfonyl]piperidine-4-carboxamide]	0.05
CCOC(=O)c1cc(C#N)c(N2CCC(C(=O)NS(=O)(=O)Cc3ccccc3)CC2)nc1SC [Example 58, Ethyl6-{4-[(benzylsulfonyl)carbamoyl]piperidin-1-yl}-5-cyano-2-(methylthio)nicotinate]	0.0077
CCOC(=O)c1cc(C#N)c(N2CC(C(=O)NS(=O)(=O)Cc3ccccc3)C2)nc1CO [Example 37, Ethyl6-{3-[(benzylsulfonyl)carbamoyl]azetidin-1-yl}-5-cyano-2-(hydroxymethyl)nicotinate]	0.047
Ethyl5-cyano-6-(3-{[(2-fluorobenzyl)sulfonyl]carbamoyl}azetidin-1-yl)-2-methoxynicotinate [Example 21]	0.015
CCOC(=O)c1cc(C#N)c(N2CC(C(=O)NS(=O)(=O)Cc3ccc(Cl)cc3F)C2)nc1OC [Example 31, Ethyl6-(3-{[(4-chloro-2-fluorobenzyl)sulfonyl]carbamoyl}azetidin-1-yl)-5-cyano-2-methoxynicotinate]	0.005
CCOC(=O)c1cc(C#N)c(N2CCC(C(=O)NS(=O)(=O)Cc3cccc(F)c3F)CC2)nc1OC [Example 19, Ethyl5-cyano-6-(4-{[(2,3-difluorobenzyl)sulfonyl]carbamoyl}piperidin-1-yl)-2-methoxynicotinate]	0.031
CC(C)OC(=O)c1cc(C#N)c(N2CCC(C(=O)NS(=O)(=O)Cc3ccccc3)CC2)nc1C#N [Example 50, Isopropyl6-{4-[(benzylsulfonyl)carbamoyl]piperidin-1-yl}-2,5-dicyanonicotinate]	0.016
CCOC(=O)c1cc(C#N)c(N2CCC(C(=O)NS(=O)(=O)Cc3ccccc3)CC2)nc1CCOC [Example 45, Ethyl6-{4-[(benzylsulfonyl)carbamoyl]piperidin-1-yl}-5-cyano-2-(2-methoxyethyl)nicotinate]	0.06
CCOCc1nc(N2CCC(C(=O)NS(=O)(=O)Cc3ccccc3)CC2)c(C#N)cc1C(=O)OCC [Example 34, Ethyl6-{4-[(benzylsulfonyl)carbamoyl]piperidin-1-yl}-5-cyano-2-(ethoxymethyl)nicotinate]	0.034
CCCC(=O)c1cc(C#N)c(N2CCC(C(=O)NS(=O)(=O)Cc3ccc(Cl)cc3)CC2)nc1OC [Example 52, 1-(5-Butyryl-3-cyano-6-methoxypyridin-2-yl)-N-[(4-chlorobenzyl)sulfonyl]piperidine-4-carboxamide]	0.055
CCOC(=O)c1cc(C#N)c(N2CCC(C(=O)NS(=O)(=O)Cc3ccc(F)cc3F)CC2)nc1OC [Example 16, Ethyl5-cyano-6-(4-{[(2,4-difluorobenzyl)sulfonyl]carbamoyl}piperidin-1-yl)-2-methoxynicotinate]	0.008
